The target of series [1] is hERG (KCNH2) (Homo sapiens, UniProt Q12809). The series is described as follows: Inhibition of Potassium Channel hERG at 10 µM in the Eurofins-Panlabs radioligand binding assay (Eurofins_assay_265900). Further details: ligand concentration 1.5 nM, non-specific ligand with concentration Astemizole, incubation time 60 min, incubation temperature 25 °C. The note with it: HEK-293 cells that express human recombinant hERG, probe [3H] Astemizole, compound concentration 10 uM. For orientation: The hERG channel carries a current that helps repolarise heart muscle cells.

The species named for series [2] is Homo sapiens. Nature of the series: Inhibition of Nicotinic Acetylcholine at compound concentration of 10.0 uM in the Eurofins-Panlabs radioligand binding assay (Eurofins_assay_258590). Type of series: protein-complex assay. The note with it: Compound concentration 10.0 uM.
The target in series [3] is T1, Alpha-2A adrenergic receptor (Homo sapiens) (UniProt P08913).
T1 sequence (whole entry): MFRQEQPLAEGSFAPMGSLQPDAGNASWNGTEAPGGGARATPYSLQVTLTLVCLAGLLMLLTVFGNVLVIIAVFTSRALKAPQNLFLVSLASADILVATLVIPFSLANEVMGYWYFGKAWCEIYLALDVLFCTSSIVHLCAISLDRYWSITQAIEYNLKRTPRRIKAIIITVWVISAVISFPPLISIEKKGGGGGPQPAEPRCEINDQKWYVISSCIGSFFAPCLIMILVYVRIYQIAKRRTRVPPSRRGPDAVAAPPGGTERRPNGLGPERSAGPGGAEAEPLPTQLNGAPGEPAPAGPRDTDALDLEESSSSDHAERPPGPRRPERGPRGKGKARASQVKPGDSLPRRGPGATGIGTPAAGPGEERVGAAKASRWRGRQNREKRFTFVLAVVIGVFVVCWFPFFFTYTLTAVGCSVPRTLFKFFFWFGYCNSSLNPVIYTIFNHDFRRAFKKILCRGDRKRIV
The series is described as follows: Adrenergic alpha2A Eurofins-Panlabs radioligand binding assay. The note with it: Compound concentration 10.0 uM. Further details: ligand concentration 1 nM, non-specific ligand with concentration 10 µM WB-4101, incubation time 60 min, incubation temperature 25 °C; call rule not given here.

The target in series [4] is Prostaglandin E2 receptor EP4 subtype (Homo sapiens) (UniProt P35408). Nature of the series: Inhibition of Prostanoid EP4 at 10 µM in the Eurofins-Panlabs radioligand binding assay (Eurofins_assay_268420). Further details: ligand concentration 1 nM. The note with it: Compound concentration 10.0 uM.
Prostaglandin E2 receptor EP4 subtype (Homo sapiens), sequence (P35408 whole entry): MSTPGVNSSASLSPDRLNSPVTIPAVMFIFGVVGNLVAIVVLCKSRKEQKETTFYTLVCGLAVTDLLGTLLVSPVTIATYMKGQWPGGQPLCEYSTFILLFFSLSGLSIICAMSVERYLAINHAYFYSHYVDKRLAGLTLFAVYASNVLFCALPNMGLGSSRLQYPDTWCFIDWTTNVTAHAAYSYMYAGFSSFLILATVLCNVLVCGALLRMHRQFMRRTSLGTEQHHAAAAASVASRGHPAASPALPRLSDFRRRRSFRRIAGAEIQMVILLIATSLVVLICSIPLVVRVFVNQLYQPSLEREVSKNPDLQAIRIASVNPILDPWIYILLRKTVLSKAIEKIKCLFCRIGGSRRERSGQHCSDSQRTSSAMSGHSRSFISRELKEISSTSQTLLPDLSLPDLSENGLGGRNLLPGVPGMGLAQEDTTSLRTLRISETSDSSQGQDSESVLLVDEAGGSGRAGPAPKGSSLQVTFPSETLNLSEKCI
Series [5] has as its target B1 bradykinin receptor (Homo sapiens) (UniProt P46663). The series is described as follows: Inhibition of Bradykinin B1 at 10 µM in the Eurofins-Panlabs radioligand binding assay (Eurofins_assay_212510). Conditions: Compound concentration 10.0 uM.
The target in series [6] is B2 bradykinin receptor (Homo sapiens) (UniProt P30411). The series is described as follows: Bradykinin B2 Eurofins-Panlabs radioligand binding assay. Conditions: Compound concentration 10.0 uM.
B2 bradykinin receptor (Homo sapiens), sequence (P30411 whole entry): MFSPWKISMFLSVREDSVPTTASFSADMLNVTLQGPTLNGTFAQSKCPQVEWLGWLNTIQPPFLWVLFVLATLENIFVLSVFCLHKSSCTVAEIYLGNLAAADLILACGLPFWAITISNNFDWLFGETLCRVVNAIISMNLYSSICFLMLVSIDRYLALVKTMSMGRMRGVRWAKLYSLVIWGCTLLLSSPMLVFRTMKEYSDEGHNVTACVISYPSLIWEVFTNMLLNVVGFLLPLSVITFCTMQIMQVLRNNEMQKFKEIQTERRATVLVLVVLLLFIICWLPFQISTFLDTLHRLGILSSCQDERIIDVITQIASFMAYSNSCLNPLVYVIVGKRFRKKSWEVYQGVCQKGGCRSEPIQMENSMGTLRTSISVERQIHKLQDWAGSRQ
Series [7] concerns the target T2, D(4) dopamine receptor (Homo sapiens) (UniProt P21917).
T2 sequence (whole entry): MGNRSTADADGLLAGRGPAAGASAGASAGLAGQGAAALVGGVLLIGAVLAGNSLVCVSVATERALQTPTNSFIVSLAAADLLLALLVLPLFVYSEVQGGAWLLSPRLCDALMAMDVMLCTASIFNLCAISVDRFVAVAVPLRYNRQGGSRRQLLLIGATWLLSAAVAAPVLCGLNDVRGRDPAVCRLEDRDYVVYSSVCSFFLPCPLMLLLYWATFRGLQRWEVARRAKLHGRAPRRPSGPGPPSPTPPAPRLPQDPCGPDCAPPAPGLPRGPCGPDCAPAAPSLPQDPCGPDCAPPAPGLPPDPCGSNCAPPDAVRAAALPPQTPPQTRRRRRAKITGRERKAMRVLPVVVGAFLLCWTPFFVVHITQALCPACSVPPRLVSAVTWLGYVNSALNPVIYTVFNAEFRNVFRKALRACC
Nature of the series: Inhibition of Dopamine D4.2 at 10 µM in the Eurofins-Panlabs radioligand binding assay (Eurofins_assay_219900). The note with it: Compound concentration 10.0 uM. Further details: ligand concentration 0.5 nM.

In series [8] the target is D(2) dopamine receptor (Homo sapiens) (UniProt P14416). The note with it: Compound concentration 10.0 uM.
D(2) dopamine receptor (Homo sapiens), sequence (P14416 whole entry): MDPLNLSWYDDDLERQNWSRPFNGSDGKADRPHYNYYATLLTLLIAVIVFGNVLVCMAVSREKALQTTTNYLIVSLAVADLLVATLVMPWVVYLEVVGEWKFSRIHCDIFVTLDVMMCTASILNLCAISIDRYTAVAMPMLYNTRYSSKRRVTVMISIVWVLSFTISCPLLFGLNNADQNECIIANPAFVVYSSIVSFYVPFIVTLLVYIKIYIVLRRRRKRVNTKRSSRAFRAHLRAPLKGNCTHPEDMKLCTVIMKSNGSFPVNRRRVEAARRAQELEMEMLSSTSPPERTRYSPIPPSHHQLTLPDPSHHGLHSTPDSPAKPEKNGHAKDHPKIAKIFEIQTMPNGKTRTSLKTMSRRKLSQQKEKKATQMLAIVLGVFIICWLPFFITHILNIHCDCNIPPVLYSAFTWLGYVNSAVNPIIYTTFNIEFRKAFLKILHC
Series [9] has as its target Substance-P receptor (Homo sapiens) (UniProt P25103). The series is described as follows: Tachykinin NK1 Eurofins-Panlabs radioligand binding assay. The note with it: Compound concentration 10.0 uM.
In series [10] the target is Adenosine receptor A1 (Homo sapiens) (UniProt P30542). Conditions: Compound concentration 10.0 uM.
Adenosine receptor A1 (Homo sapiens), sequence (P30542 whole entry): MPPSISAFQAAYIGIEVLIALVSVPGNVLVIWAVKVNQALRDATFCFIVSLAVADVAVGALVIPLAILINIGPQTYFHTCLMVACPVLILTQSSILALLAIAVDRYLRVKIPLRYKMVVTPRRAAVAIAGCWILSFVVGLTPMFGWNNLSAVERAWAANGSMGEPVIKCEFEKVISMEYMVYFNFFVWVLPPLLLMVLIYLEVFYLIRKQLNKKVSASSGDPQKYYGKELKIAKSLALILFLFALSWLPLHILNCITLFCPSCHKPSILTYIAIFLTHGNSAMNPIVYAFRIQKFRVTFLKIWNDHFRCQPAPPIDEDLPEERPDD
In series [11] the target is T3, 5-hydroxytryptamine receptor 1A (Homo sapiens) (UniProt P08908).
T3 sequence (whole entry): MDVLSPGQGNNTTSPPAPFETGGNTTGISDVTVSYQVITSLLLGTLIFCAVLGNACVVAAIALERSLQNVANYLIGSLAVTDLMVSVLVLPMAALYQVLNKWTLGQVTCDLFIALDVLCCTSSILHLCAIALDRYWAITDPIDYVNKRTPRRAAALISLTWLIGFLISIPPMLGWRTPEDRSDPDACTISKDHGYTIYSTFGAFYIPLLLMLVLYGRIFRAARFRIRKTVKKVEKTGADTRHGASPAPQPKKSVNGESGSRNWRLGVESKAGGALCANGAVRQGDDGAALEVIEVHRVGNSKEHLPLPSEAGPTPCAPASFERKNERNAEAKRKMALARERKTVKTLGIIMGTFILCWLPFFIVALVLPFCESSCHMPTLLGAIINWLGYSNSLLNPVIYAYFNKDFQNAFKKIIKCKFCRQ
The note with it: Compound concentration 10.0 uM.

Series [12] addresses Acetylcholine receptor subunit alpha (Homo sapiens) (UniProt P02708). Nature of the series: Inhibition of Nicotinic Acetylcholine […], Bungarotoxin at 10 µM in the Eurofins-Panlabs radioligand binding assay (Eurofins_assay_258700). The note with it: Compound concentration 10.0 uM.
The target of series [13] is Histamine H2 receptor (Homo sapiens) (UniProt P25021). Conditions: Compound concentration 10.0 uM.
Histamine H2 receptor (Homo sapiens), sequence (P25021 whole entry): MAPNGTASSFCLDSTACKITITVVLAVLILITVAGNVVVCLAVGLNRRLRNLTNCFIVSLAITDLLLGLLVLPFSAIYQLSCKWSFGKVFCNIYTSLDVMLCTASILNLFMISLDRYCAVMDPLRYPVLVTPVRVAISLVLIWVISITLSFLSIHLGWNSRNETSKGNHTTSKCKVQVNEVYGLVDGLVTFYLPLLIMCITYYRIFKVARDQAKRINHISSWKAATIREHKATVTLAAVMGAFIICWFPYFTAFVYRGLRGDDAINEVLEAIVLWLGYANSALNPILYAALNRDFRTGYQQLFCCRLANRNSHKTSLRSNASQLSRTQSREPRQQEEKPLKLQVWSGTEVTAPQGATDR
Series [14] deals with Sigma intracellular receptor 2 (Homo sapiens, UniProt Q5BJF2). Nature of the series: GPCRScan assay: inhibition of Sigma 2. More on the design: radioligand conc. used [nm] 5.0, parental cells HEKT.
Sigma intracellular receptor 2, sequence (Q5BJF2 whole entry): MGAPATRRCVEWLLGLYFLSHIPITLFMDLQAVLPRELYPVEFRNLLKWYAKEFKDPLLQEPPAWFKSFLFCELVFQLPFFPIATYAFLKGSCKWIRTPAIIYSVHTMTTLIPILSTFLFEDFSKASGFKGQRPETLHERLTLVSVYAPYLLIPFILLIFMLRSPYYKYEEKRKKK
The target of series [15] is D(3) dopamine receptor (Homo sapiens) (UniProt P35462). The note with it: Compound concentration 10.0 uM.
D(3) dopamine receptor (Homo sapiens), sequence (P35462 whole entry): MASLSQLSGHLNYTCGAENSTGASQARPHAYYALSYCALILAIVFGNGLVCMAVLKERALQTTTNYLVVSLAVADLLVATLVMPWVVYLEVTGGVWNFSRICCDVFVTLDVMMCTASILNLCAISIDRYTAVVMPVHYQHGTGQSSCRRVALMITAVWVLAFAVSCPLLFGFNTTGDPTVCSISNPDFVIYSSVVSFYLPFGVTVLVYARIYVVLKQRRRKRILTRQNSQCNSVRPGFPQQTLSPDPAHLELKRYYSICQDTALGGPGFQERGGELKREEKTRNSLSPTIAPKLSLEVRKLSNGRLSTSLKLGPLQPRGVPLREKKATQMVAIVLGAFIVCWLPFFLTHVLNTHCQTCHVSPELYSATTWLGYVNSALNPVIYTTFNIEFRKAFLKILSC
For series [16], the target named is Kappa-type opioid receptor (Homo sapiens) (UniProt P41145). Conditions: Compound concentration 10.0 uM.
Kappa-type opioid receptor (Homo sapiens), sequence (P41145 whole entry): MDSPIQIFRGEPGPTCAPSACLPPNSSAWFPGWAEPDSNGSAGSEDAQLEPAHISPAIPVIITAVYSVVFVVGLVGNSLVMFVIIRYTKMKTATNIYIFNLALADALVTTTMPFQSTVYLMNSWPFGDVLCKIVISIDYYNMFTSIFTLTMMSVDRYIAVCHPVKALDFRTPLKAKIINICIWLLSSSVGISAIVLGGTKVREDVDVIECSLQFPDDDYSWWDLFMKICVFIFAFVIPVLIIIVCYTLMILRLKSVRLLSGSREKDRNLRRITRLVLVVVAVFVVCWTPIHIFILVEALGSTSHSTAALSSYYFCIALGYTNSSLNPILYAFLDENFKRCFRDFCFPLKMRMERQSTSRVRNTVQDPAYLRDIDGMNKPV
In series [17] the target is Platelet-activating factor receptor (Homo sapiens) (UniProt P25105). The series is described as follows: Inhibition of Platelet Activating Factor (PAF) at 10 µM in the Eurofins-Panlabs radioligand binding assay (Eurofins_assay_265010). The note with it: Compound concentration 10.0 uM.
Platelet-activating factor receptor (Homo sapiens), sequence (P25105 whole entry): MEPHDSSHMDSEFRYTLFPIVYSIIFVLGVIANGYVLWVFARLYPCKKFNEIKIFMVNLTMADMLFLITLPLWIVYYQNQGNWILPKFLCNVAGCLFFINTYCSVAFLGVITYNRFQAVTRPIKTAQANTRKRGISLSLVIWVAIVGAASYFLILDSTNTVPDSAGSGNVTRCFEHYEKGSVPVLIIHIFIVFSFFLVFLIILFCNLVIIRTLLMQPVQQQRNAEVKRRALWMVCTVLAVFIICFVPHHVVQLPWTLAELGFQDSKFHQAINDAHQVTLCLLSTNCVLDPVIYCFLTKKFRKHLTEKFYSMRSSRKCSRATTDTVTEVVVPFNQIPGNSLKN
Series [18] deals with Platelet. Nature of the series: Inhibition of platelet aggregation (human plasma, thrombin). Type of series: cell-based.
Series [19] concerns Platelet. The series is described as follows: Inhibition of platelet aggregation (human plasma, TRAP-6). Type of series: cell-based.
In series [20] the target is Kappa-type opioid receptor (Homo sapiens) (UniProt P41145). Nature of the series: kappa (KOP) (h) Eurofins-Cerep Cellular and Nuclear Receptor Functional Assays. The note with it: Compound concentration 10.0 uM.

What is called inhibition is the relative decrease from the control value, in per cent. What is called IC50 is the concentration that inhibits the measured activity by half. Low readings indicate higher potency, high ones lower potency.

B1 bradykinin receptor (Homo sapiens), sequence (P46663 whole entry): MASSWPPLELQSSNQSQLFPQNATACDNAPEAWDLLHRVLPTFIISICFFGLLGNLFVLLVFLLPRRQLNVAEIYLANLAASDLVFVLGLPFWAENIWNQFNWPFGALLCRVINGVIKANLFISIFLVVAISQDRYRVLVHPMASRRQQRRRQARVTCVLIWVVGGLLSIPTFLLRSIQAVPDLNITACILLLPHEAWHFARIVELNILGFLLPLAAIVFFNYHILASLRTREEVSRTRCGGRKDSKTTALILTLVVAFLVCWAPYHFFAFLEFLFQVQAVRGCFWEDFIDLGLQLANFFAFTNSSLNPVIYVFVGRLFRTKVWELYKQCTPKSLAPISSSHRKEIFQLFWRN
Substance-P receptor (Homo sapiens), sequence (P25103 whole entry): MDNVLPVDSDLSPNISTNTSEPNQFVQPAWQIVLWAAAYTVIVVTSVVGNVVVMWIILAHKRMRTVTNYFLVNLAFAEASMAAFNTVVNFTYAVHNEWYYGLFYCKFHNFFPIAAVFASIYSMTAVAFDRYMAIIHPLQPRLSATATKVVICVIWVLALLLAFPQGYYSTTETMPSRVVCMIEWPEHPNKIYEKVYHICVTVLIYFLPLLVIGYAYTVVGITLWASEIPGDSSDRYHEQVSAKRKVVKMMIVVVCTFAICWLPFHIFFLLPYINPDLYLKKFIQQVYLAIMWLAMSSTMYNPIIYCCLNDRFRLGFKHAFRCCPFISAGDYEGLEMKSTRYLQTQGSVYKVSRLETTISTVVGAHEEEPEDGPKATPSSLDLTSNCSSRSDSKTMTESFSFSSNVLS
Acetylcholine receptor subunit alpha (Homo sapiens), sequence (P02708 whole entry): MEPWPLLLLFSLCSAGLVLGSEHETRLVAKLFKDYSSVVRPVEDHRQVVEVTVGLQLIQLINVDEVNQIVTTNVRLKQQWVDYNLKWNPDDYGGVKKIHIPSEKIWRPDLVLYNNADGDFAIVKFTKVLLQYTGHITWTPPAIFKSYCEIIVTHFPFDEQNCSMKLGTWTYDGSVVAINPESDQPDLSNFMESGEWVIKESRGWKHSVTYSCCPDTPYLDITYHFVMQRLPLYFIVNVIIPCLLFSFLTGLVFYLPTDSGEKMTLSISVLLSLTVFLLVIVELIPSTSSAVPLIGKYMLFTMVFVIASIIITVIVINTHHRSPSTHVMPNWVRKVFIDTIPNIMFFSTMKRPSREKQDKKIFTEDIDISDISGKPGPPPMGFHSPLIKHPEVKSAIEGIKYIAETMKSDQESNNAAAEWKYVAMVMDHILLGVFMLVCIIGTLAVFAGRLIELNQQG

For `O=C(N1CCS(=O)(=O)CC1)N1C[C@H](c2ccc(OC(F)(F)F)cc2)C[C@H](c2nc(C3CC3)no2)C1` [BAY-386], the inhibition at 60 min, 10 µM in [1] was 22% (not active). The inhibition in series [2] was -4%; in [3] it was 8%; in series [4], 1%; in series [5], 6%; in series [6], 11%; in series [7], -9%. For the same molecule, the inhibition was 1% in series [8]; -2% in series [9]; -6% in series [10]; -9% in series [11]; -2% in [12]; 9.25% in series [13]. In addition, the inhibition is -1% in series [15], -3% in series [16] and 0% in [17]. In addition, the Ki was 1200 nM in series [14] (read-out: Ki) and 1150 nM in series [14] (read-out: pKi (converted)). The IC50 in [18] turned out to be 140 nM.

Regarding `Cc1noc([C@H]2C[C@@H](c3ccc(C(F)(F)F)cc3)CN(C(=O)N3CCS(=O)(=O)C3)C2)n1` [BAY-448], the IC50 in series [19] is > 10000 nM (not active). In series [20], this molecule gave a % Inhibition of Control Agonist Response (Mean n=2) of 1.3% and a % of Control Agonist Response (Mean n=2) of 9%.

These data come from ChEMBL document CHEMBL4507269, “Data for DCP probe BAY-386” (2021).
